Entries after “also recorded” stand apart in the source; their conditions may differ.
Key:
S1P1 receptor = biological target: T1, S1P1 receptor (Homo sapiens, UniProt P21453); test: HTRF assay for direct cAMP measurement (S1P1 receptor agonists); assay type: cell-based; details: recombinant CHO-K1 cells stably transfected with S1P1 receptor; decrease of cAMP concentration
T1 construct: expressed in transfected cells; host or cells: CHO-K1 (ATCC CCL-61), stably transfected
Text: Compounds were screened for agonists of S1P1 receptor (e.g., human S1P1 receptor) using HTRF® assay for direct cAMP measurement (Gabriel et al, ASSAY and Drug Development Technologies, 1:291-303, 2003) and recombinant CHO-K1 cells stably transfected with S1P1 receptor. CHO-K1 cells were obtained from ATCC® (Manassas, Va.; Catalog #CCL-61). An agonist of S1P1 receptor was detected in HTRF® assay for direct cAMP measurement as a compound which decreased cAMP concentration. HTRF® assay also was used to determine EC50 values for S1P1 receptor agonists.
Principle of the assay: HTRF® assay kit was purchased from Cisbio-US, Inc. (Bedford, Mass.; Catalog #62AM4PEC). The HTRF® assay supported by the kit is a competitive immunoassay between endogenous cAMP produced by the CHO-K1 cells and tracer cAMP labeled with the dye d2. The tracer binding is visualized by a monoclonal anti-cAMP antibody labeled with Cryptate. The specific signal (i.e., fluorescence resonance energy transfer, FRET) is inversely proportional to the concentration of unlabeled cAMP in the standard or sample.
The fluorescence ratio of the samples (test compound or compound buffer) was calculated and used to deduce respective cAMP concentrations by reference to the cAMP standard curve.
Setup of the assay: HTRF® assay was carried out using a two-step protocol essentially according to the kit manufacturer's instructions, in 20 μL total volume per well in 384-well plate format (ProxiPlates; PerkinElmer, Fremont, Calif.; catalog #6008280). To each of the experimental wells was transferred 1500 recombinant CHO-K1 cells in 5 μL phosphate buffered saline containing calcium chloride and magnesium chloride (“PBS+”; Invitrogen, Carlsbad, Calif.; catalog #14040) supplemented with IBMX (250 μM) and rolipram (20 μM) (phosphodiesterase inhibitors; Sigma-Aldrich, St. Louis, Mo.; catalog #I5879 and catalog #R6520, respectively), followed by test compound in 5 μL compound buffer (PBS+ supplemented with […] (water-soluble forskolin derivative; SignaGen Laboratories, Gaithersburg, Md.; catalog #PKI-NKH477-010)) or 5 μL compound buffer. The plate was then incubated at room temperature for 1 hour. To each well was then added 5 μL cAMP-d2 conjugate in lysis buffer and 5 μL Cryptate conjugate in lysis buffer according to the kit manufacturer's instructions. The plate was then further incubated at room temperature for 1 hour, after which the assay plate was read.
Assay readout: HTRF® readout was accomplished using a PHERAstar (BMG LABTECH Inc., Durham, N.C.) or EnVision™ (PerkinElmer, Fremont Calif.) microplate reader.

Male BALB/c mice = test: Mouse peripheral lymphocyte lowering (PLL) assay; assay type: in vivo; details: 1 mg/kg i.v. in 100% PEG400, 5 h post dose, compared with vehicle; *P<0.05; FIG. 2
Experimental: Animals: Male BALB/c mice (6 to 7 weeks of age at start of study) (Charles River Laboratories, Wilmington, Mass.) were housed four per cage and maintained in a humidity- (40-60%) and temperature- (68-72° F.) controlled facility on a 12 h:12 h light/dark cycle (lights on at 6:30 am) with free access to food (Harlan Teklad, Orange, Calif., Rodent Diet 8604) and water. Mice were allowed one week of habituation to the animal facility before testing.
PLL Assay: Mice were administered via i.v. one of the following: saline, vehicle (100% PEG400) or 1 mg/kg Compound 52 in vehicle, in a total volume of 5 ml/kg. Peripheral blood samples were collected at 5 h post dose. The mice were anesthetized with isoflurane and bled retro-orbitally (300 μL) into 1.5 ml EDTA tubes. A complete cell count (CBC) (including lymphocyte count) was obtained using CELL-DYN® 3700 (Abbott Laboratories, Abbott Park, Ill.). Results are presented in FIG. 2, in which peripheral blood lymphocyte (PBL) count is shown for the 5 hour group.

S1P3 receptor = S1P3 receptor (Homo sapiens, UniProt Q99500); test: Cellular/functional Ca2+ assay for agonist activity on S1P3 receptor; assay type: cell-based; set-up: a human neuroblastoma cell line which endogenously expresses S1P3 (predominantly); endogenous in cells; details: human neuroblastoma cell line endogenously expressing S1P3; FIG. 1
Text: Of these, S1P3 and S1P2 receptors respond to agonist, such as S1P, with an intracellular calcium increase. […] Such an assay can be performed commercially, e.g. by Caliper LifeSciences (Hopkinton, Mass.).
Assay: The human neuroblastoma cells were washed and resuspended in physiological buffer. The cells were then loaded with dye that measures intracellular calcium. S1P was used as a reference agonist. Compound 52 was included in the assay as a test compound. After addition of S1P or Compound 52, fluorescence was measured at 485 nm excitation/525 nm emission every 2 s for at least 60 s. Calcium ionophore A23187 was then added as an internal positive control.

Sequence of S1P3 receptor (Q99500 whole entry): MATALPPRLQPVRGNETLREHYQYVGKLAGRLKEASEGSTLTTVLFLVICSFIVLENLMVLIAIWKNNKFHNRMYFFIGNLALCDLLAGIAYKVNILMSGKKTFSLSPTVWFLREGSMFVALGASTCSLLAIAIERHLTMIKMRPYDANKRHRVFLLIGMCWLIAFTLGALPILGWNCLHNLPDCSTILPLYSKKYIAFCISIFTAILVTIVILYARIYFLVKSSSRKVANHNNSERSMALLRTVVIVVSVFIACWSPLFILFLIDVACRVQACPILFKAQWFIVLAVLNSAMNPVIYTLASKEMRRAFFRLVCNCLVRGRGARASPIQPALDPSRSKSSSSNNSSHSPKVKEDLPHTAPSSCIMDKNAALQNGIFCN
T1 sequence (P21453 whole entry): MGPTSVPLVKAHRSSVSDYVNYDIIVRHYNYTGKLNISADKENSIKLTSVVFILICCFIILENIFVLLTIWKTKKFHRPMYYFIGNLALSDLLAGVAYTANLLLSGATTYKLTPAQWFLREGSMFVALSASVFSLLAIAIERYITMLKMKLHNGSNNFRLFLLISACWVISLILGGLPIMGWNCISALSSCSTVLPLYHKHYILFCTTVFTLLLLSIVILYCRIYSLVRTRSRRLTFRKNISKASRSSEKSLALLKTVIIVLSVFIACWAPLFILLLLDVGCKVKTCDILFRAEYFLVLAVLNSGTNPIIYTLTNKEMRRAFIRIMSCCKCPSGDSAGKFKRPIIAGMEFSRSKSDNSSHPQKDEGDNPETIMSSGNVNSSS

Row | Structure (SMILES) | EC50 (S1P1 receptor) [nM] | peripheral blood lymphocyte (PBL) count / peripheral lymphocyte lowering (Male BALB/c mice) | agonist activity on S1P3 receptor (intracellular calcium) (S1P3 receptor)
1 | N#Cc1cc(-c2nc(-c3ccc4[nH]c5c(c4c3)CCC5CC(=O)O)no2)ccc1OC1CCCC1 (single isomer, unassigned) [Compound 19, 2-(7-(5-(3-Cyano-4-(cyclopentyloxy)phenyl)-1,2,4-oxadiazol-3-yl)-1,2,3,4-tetrahydrocyclopenta[b]indol-3-yl)acetic Acid] | 18.8 | – | –
2 | N#Cc1cc(OCCF)cc(-c2nc(-c3ccc4[nH]c5c(c4c3)CCC5CC(=O)O)no2)c1 (stereo not shown) [Compound 32, 2-(7-(5-(3-Cyano-5-(2-fluoroethoxy)phenyl)-1,2,4-oxadiazol-3-yl)-1,2,3,4-tetrahydrocyclopenta[b]indol-3-yl)acetic Acid] | 43 | – | –
3 | O=C(O)CC1CCc2c1[nH]c1ccc(-c3noc(-c4cc(C(F)(F)F)cc(C(F)(F)F)c4)n3)cc21 (stereo not shown) [Compound 52, 2-(7-(5-(3,5-Bis(trifluoromethyl)phenyl)-1,2,4-oxadiazol-3-yl)-1,2,3,4-tetrahydrocyclopenta[b]indol-3-yl)acetic Acid] | 75.9 | exhibited activity for inducing peripheral lymphocyte lowering | substantially little to no activity; also recorded: no or substantially no agonist activity
4 | NC(=O)c1cc(OC(F)(F)F)cc(-c2nc(-c3ccc4[nH]c5c(c4c3)CCC5CC(=O)O)no2)c1 (stereo not shown) [Compound 51, 2-(7-(5-(3-Carbamoyl-5-(trifluoromethoxy)phenyl)-1,2,4-oxadiazol-3-yl)-1,2,3,4-tetrahydrocyclopenta[b]indol-3-yl)acetic Acid] | 230 | – | –
5 | CCOc1ncc(-c2nc(-c3ccc4[nH]c5c(c4c3)CCC5CC(=O)O)no2)cc1C (stereo not shown) [Compound 62, 2-(7-(5-(6-Ethoxy-5-methylpyridin-3-yl)-1,2,4-oxadiazol-3-yl)-1,2,3,4-tetrahydrocyclopenta[b]indol-3-yl)acetic Acid] | 210 | – | –
6 | O=C(O)CC1CCc2c1[nH]c1ccc(-c3noc(-c4ccc(OCC(F)(F)F)nc4)n3)cc21 (stereo not shown) [Compound 47, 2-(7-(5-(6-(2,2,2-Trifluoroethoxy)pyridin-3-yl)-1,2,4-oxadiazol-3-yl)-1,2,3,4-tetrahydrocyclopenta[b]indol-3-yl)acetic Acid] | 83 | – | –
7 | CNc1ccc2oc(C[C@H]3O[C@@]4(CC[C@H]3C)O[C@H]([C@H](C)C(=O)c3ccc[nH]3)[C@H](C)C[C@H]4C)nc2c1C(=O)O [Compound A23187, reference compound] | – | – | pronounced agonist activity
8 | COc1ccc(-c2nc(-c3ccc4[nH]c5c(c4c3)CCC5CC(=O)O)no2)cc1C(F)(F)F (stereo not shown) [Compound 42, 2-(7-(5-(4-Methoxy-3-(trifluoromethyl)phenyl)-1,2,4-oxadiazol-3-yl)-1,2,3,4-tetrahydrocyclopenta[b]indol-3-yl)acetic Acid] | 94 | – | –

Reference: patent US20100273806A1, “TETRAHYDROCYCLOPENTA[B]INDOL-3-YL CARBOXYLIC ACID DERIVATIVES USEFUL IN THE TREATMENT OF AUTOIMMUNE AND INFLAMMATORY DISORDERS” (ARENA PHARMACEUTICALS, INC., priority 2007, published 2010)
